From patent US9284323B2, “Naphthalene acetic acid derivatives against HIV infection” (Gilead Sciences, Inc., priority 2012, dated 2016) come the findings set out here.

In the experiment the test system is HIV-IIIb. The experiment is described as follows: Test A: Antiviral Assays in MT4 Cells. It is filed as cell-based. To be noted: MT-4 cells infected with HIV-IIIb, 5 days incubation, CellTiter-Glo readout. As for the experimental part:
The antiviral properties of a compound disclosed herein may be determined using Test A described below.
Test A: Antiviral Assays in MT4 Cells
For the antiviral assay utilizing MT-4 cells, 0.4 μL of […] test concentration of 3-fold serially diluted compound in DMSO was added to 40 μL of cell growth medium (RPMI 1640, 10% FBS, 1% penicillin/Streptomycin, 1% L-Glutamine, 1% HEPES) in each well of 384-well assay plates (10 concentrations) in quadruplicate.
1 mL aliquots of 2×10e6 MT-4 cells are pre-infected for 1 and 3 hrs respectively, @ 37° C. with 25 μL (MT4) or of either cell growth medium (mock-infected) or a fresh 1:250 dilution of an HIV-IIIb concentrated ABI stock (0.004 m.o.i. for MT4 cells). Infected and uninfected cells are diluted in cell growth medium and 35 μL of 2000 (for MT4) cells is added to each well of the assay plates.
Assay plates were then incubated in a 37° C. incubator. After 5 days of incubation, 25 μl of 2× concentrated CellTiter-Glo™ Reagent (catalog # G7573, Promega Biosciences, Inc., Madison, Wis.) was added to each well of the assay plate. Cell lysis was carried out by incubating at room temperature for 2-3 min and then chemiluminescence was read using the Envision reader (PerkinElmer).
On the technique in general: In ATP-based viability assays light output follows the ATP content of the culture.

Where [1] appears, read: Human immunodeficiency virus 1, IIIB, MT4, 120 h, Table I.
Setting [2] is: Human immunodeficiency virus 1, IIIB, MT4, 120 h, Table II.

`CCOc1c(C#N)ccc2c(-c3ccc4c5c(ccnc35)CCO4)c([C@H](OC(C)(C)C)C(=O)O)c(C)cc12` (atropisomer, axis not shown) [Example 22, (S)-2-tert-Butoxy-2-((R)-6-cyano-1-(2,3-dihydropyrano[4,3,2-de]quinolin-7-yl)-5-ethoxy-3-methylnaphthalen-2-yl)acetic acid]: the midpoint of the response under setting [1], the EC50, lay at 14 nM.
With `COc1ncc(-c2ccc3c(-c4ccc5c6c(ccnc46)CCO5)c([C@H](OC(C)(C)C)C(=O)O)c(C)cc3c2)cn1` (atropisomer, axis not shown) [Example 60], under setting [2], the EC50 (usually the midpoint of the concentration-response curve) was found to be 12.2 nM.
`Cc1cc2cc(-c3cnc(-c4ccccc4)nc3)ccc2c(-c2ccc3c4c(ccnc24)CCO3)c1[C@H](OC(C)(C)C)C(=O)O` (atropisomer, axis not shown) [Example 37]: for the setting “Table II”, the EC50 stood at 4450 nM.
For `Cc1cc2ccc(C#CC(C)(O)c3ccccc3)cc2c(-c2ccc(Cl)cc2)c1[C@H](OC(C)(C)C)C(=O)O` (stereo in doubt) [Example 14, (S)-2-tert-butoxy-2-(1-(4-chlorophenyl)-7-((R)-3-hydroxy-3-phenylbut-1-ynyl)-3-methylnaphthalen-2-yl)acetic acid], under setting [1], the response was half-maximal at 56 nM (EC50).
For the setting “Table II”, `CC(C)(C)O[C@H](C(=O)O)c1c2c(c3ccccc3c1-c1ccc3c4c(ccnc14)CCO3)OCC2` (atropisomer, axis not shown) [Example 78] returned an EC50 of 45.8 nM.
Consider `Cc1c([C@H](OC(C)(C)C)C(=O)O)c(-c2ccc3c4c(ccnc24)CCO3)c2ccccc2c1N` (atropisomer, axis not shown) [Example 93], for which the EC50 under setting [2] is 7.92 nM.
For `COCC(C)(C)O[C@H](C(=O)O)c1c(C)cc2ccccc2c1-c1ccc2c3c(ccnc13)CCO2` (atropisomer, axis not shown) [Example 26, (2S)-2-((S)-1-(2,3-Dihydropyrano[4,3,2-de]quinolin-7-yl)-3-methylnaphthalen-2-yl)-2-(1-methoxy-2-methylpropan-2-yloxy)acetic acid], under “Table I”, the EC50 amounted to 929 nM.
Compound `Cc1cc2cc(-c3cnc(-c4ccccc4)nc3)ccc2c(-c2ccc3c4c(ccnc24)CCO3)c1[C@H](OC(C)(C)C)C(=O)O` (atropisomer, axis not shown) [Example 36] gave an EC50 (Table II) of 100 nM.
In the case of `Cc1cc2cc(-c3ccc(-c4cncnc4)cc3)ccc2c(-c2ccc3c4c(ccnc24)CCO3)c1[C@H](OC(C)(C)C)C(=O)O` (atropisomer, axis not shown) [Example 40], for the setting “Table II”, the response was half-maximal at 542 nM (EC50).
`Cc1cc2cc(-c3cncnc3C)ccc2c(-c2ccc3c4c(ccnc24)CCO3)c1[C@H](OC(C)(C)C)C(=O)O` (atropisomer, axis not shown) [Example 56]: the EC50 (Table II) amounted to 30.5 nM.
`CC(=O)Nc1c(C)c([C@H](OC(C)(C)C)C(=O)O)c(-c2ccc3c4c(ccnc24)CCO3)c2ccccc12` (atropisomer, axis not shown) [Example 89] came in with an EC50 under setting [2] of 218 nM.
